Measurements as given in the supplement of paper PMC10307832.

How the values were obtained:
Test in all cases: relative viability (nuclei count vs DMSO), 5 days (fraction); higher = more cells survive
LCLC-103H = tested on: LCLC-103H
In short: (§1)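 A single step with final 0.05% Triton X-100, 1% formaldehyde and 1 ug/ml Hoechst fixed the cells and stained nuclei 5 days after treatment. Lung cancer cell lines in 1536-well plates had been treated by pin tool the day after seeding with one drug alone or a fixed anchor-drug dose plus five library-drug doses (not always all listed) in √10 steps, and nuclei were counted on 4× images. Relative viability is the ratio of nuclei in treated wells to nuclei in vehicle wells, taken as the median of duplicate plates.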

EBC-1 = tested on: EBC-1
In short: as §1

EKVX = tested on: EKVX
In short: as §1

NCI-H1703 = tested on: NCI-H1703
In short: as §1

A549 = tested on: A549
In short: as §1

HCC-15 = tested on: HCC-15
In short: as §1

NCI-H1299 = tested on: NCI-H1299
In short: as §1

IA-LM = tested on: IA-LM
In short: as §1

NCI-H1755 = tested on: NCI-H1755
In short: as §1

NCI-H1395 = tested on: NCI-H1395
In short: as §1

HCC-44 = tested on: HCC-44
In short: as §1

UMC-11 = tested on: UMC-11
In short: as §1

Calu-6 = tested on: Calu-6
In short: as §1

`Cc1sc2c(c1C)C(c1ccc(Cl)cc1)=N[C@@H](CC(=O)OC(C)(C)C)c1nnc(C)n1-2` [JQ1] + Cc1nc(NC(=O)N2CCC[C@H]2C(N)=O)sc1-c1ccnc(C(C)(C)C(F)(F)F)c1 [Alpelisib] (partner 2 µM) was tested, and the relative viability (LCLC-103H; first compound 0.04 µM) was 0.957, the relative viability (LCLC-103H; first compound 0.1265 µM) was 0.828 and the relative viability (LCLC-103H; first compound 0.4 µM) was 0.751. For the same compound, the relative viability (LCLC-103H; first compound 1.265 µM) was 0.572, the relative viability (EBC-1; first compound 0.04 µM) was 0.885 and the relative viability (EBC-1; first compound 0.1265 µM) was 0.454. For the same compound, the relative viability (EBC-1; first compound 0.4 µM) was 0.226, the relative viability (EBC-1; first compound 1.265 µM) was 0.142 and the relative viability (EBC-1; first compound 4 µM) was 0.149. The relative viability (EKVX; first compound 0.04 µM) was 0.834, the relative viability (EKVX; first compound 0.1265 µM) was 0.8 and the relative viability (EKVX; first compound 0.4 µM) was 0.688. For the same compound, the relative viability (EKVX; first compound 1.265 µM) was 0.729, the relative viability (EKVX; first compound 4 µM) was 0.664 and the relative viability (NCI-H1703; first compound 0.04 µM) was 0.315. For the same compound, the relative viability (NCI-H1703; first compound 0.1265 µM) was 0.335, the relative viability (NCI-H1703; first compound 0.4 µM) was 0.297 and the relative viability (NCI-H1703; first compound 1.265 µM) was 0.26. It also gave a relative viability (NCI-H1703; first compound 4 µM) of 0.321, a relative viability (A549; first compound 0.04 µM) of 0.785 and a relative viability (A549; first compound 0.1265 µM) of 0.644. The relative viability (A549; first compound 0.4 µM) was 0.509, the relative viability (A549; first compound 1.265 µM) was 0.401 and the relative viability (A549; first compound 4 µM) was 0.262. The relative viability (HCC-15; first compound 0.04 µM) was 0.806, the relative viability (HCC-15; first compound 0.4 µM) was 0.768 and the relative viability (HCC-15; first compound 1.265 µM) was 0.417. For the same compound, the relative viability (HCC-15; first compound 4 µM) was 0.449, the relative viability (NCI-H1299; first compound 0.04 µM) was 1.02 and the relative viability (NCI-H1299; first compound 0.1265 µM) was 0.947. For the same compound, the relative viability (NCI-H1299; first compound 0.4 µM) was 0.951, the relative viability (NCI-H1299; first compound 1.265 µM) was 0.514 and the relative viability (NCI-H1299; first compound 4 µM) was 0.353. It also gave a relative viability (IA-LM; first compound 0.04 µM) of 0.772, a relative viability (IA-LM; first compound 0.1265 µM) of 0.324 and a relative viability (IA-LM; first compound 0.4 µM) of 0.143. For the same compound, the relative viability (IA-LM; first compound 1.265 µM) was 0.0875, the relative viability (IA-LM; first compound 4 µM) was 0.103 and the relative viability (NCI-H1755; first compound 0.04 µM) was 0.916. The relative viability (NCI-H1755; first compound 0.1265 µM) was 0.918, the relative viability (NCI-H1755; first compound 0.4 µM) was 1.01 and the relative viability (NCI-H1755; first compound 1.265 µM) was 0.623. For the same compound, the relative viability (NCI-H1755; first compound 4 µM) was 0.533, the relative viability (NCI-H1395; first compound 0.04 µM) was 1.03 and the relative viability (NCI-H1395; first compound 0.1265 µM) was 0.856. It also gave a relative viability (NCI-H1395; first compound 0.4 µM) of 0.813, a relative viability (NCI-H1395; first compound 1.265 µM) of 0.495 and a relative viability (NCI-H1395; first compound 4 µM) of 0.404. It also gave a relative viability (HCC-44; first compound 0.04 µM) of 0.809, a relative viability (HCC-44; first compound 0.1265 µM) of 0.518 and a relative viability (HCC-44; first compound 0.4 µM) of 0.37. It also gave a relative viability (HCC-44; first compound 1.265 µM) of 0.251, a relative viability (HCC-44; first compound 4 µM) of 0.238 and a relative viability (UMC-11; first compound 0.04 µM) of 0.941. For the same compound, the relative viability (UMC-11; first compound 0.1265 µM) was 0.997, the relative viability (UMC-11; first compound 0.4 µM) was 0.26 and the relative viability (UMC-11; first compound 1.265 µM) was 0.197. The relative viability (UMC-11; first compound 4 µM) was 0.158, the relative viability (Calu-6; first compound 0.04 µM) was 0.955 and the relative viability (Calu-6; first compound 0.1265 µM) was 0.815. The relative viability (Calu-6; first compound 0.4 µM) was 0.818, the relative viability (Calu-6; first compound 1.265 µM) was 0.589 and the relative viability (Calu-6; first compound 4 µM) was 0.4.
`COc1cc2nccc(Oc3ccc(NC(=O)Nc4cc(C)on4)c(Cl)c3)c2cc1OC` [Tivozanib] + CS(=O)(=O)N1CCN(Cc2cc3nc(-c4cccc5[nH]ncc45)nc(N4CCOCC4)c3s2)CC1 [Pictilisib] (partner 1 µM) gave a relative viability (LCLC-103H; first compound 0.005 µM) of 0.58, a relative viability (LCLC-103H; first compound 0.01581 µM) of 0.735 and a relative viability (LCLC-103H; first compound 0.05 µM) of 0.604. For the same compound, the relative viability (LCLC-103H; first compound 0.1581 µM) was 0.602, the relative viability (LCLC-103H; first compound 0.5 µM) was 0.591 and the relative viability (EBC-1; first compound 0.005 µM) was 0.367. For the same compound, the relative viability (EBC-1; first compound 0.01581 µM) was 0.362, the relative viability (EBC-1; first compound 0.05 µM) was 0.378 and the relative viability (EBC-1; first compound 0.1581 µM) was 0.25. For the same compound, the relative viability (EBC-1; first compound 0.5 µM) was 0.401, the relative viability (EKVX; first compound 0.005 µM) was 0.392 and the relative viability (EKVX; first compound 0.01581 µM) was 0.426. The relative viability (EKVX; first compound 0.05 µM) was 0.535, the relative viability (EKVX; first compound 0.1581 µM) was 0.394 and the relative viability (EKVX; first compound 0.5 µM) was 0.497. It also gave a relative viability (NCI-H1703; first compound 0.005 µM) of 0.161, a relative viability (NCI-H1703; first compound 0.01581 µM) of 0.236 and a relative viability (NCI-H1703; first compound 0.05 µM) of 0.253. For the same compound, the relative viability (NCI-H1703; first compound 0.1581 µM) was 0.181, the relative viability (NCI-H1703; first compound 0.5 µM) was 0.213 and the relative viability (A549; first compound 0.005 µM) was 0.49. The relative viability (A549; first compound 0.01581 µM) was 0.456, the relative viability (A549; first compound 0.05 µM) was 0.65 and the relative viability (A549; first compound 0.1581 µM) was 0.451. For the same compound, the relative viability (A549; first compound 0.5 µM) was 0.571, the relative viability (HCC-15; first compound 0.005 µM) was 0.631 and the relative viability (HCC-15; first compound 0.01581 µM) was 0.641. The relative viability (HCC-15; first compound 0.05 µM) was 0.719, the relative viability (HCC-15; first compound 0.1581 µM) was 0.588 and the relative viability (HCC-15; first compound 0.5 µM) was 0.717. The relative viability (NCI-H1299; first compound 0.005 µM) was 0.687, the relative viability (NCI-H1299; first compound 0.01581 µM) was 0.62 and the relative viability (NCI-H1299; first compound 0.05 µM) was 0.797. For the same compound, the relative viability (NCI-H1299; first compound 0.1581 µM) was 0.789, the relative viability (NCI-H1299; first compound 0.5 µM) was 0.615 and the relative viability (IA-LM; first compound 0.005 µM) was 0.308. The relative viability (IA-LM; first compound 0.01581 µM) was 0.366, the relative viability (IA-LM; first compound 0.05 µM) was 0.321 and the relative viability (IA-LM; first compound 0.1581 µM) was 0.316. The relative viability (IA-LM; first compound 0.5 µM) was 0.574, the relative viability (NCI-H1755; first compound 0.005 µM) was 0.365 and the relative viability (NCI-H1755; first compound 0.01581 µM) was 0.402. The relative viability (NCI-H1755; first compound 0.05 µM) was 0.453, the relative viability (NCI-H1755; first compound 0.1581 µM) was 0.405 and the relative viability (NCI-H1755; first compound 0.5 µM) was 0.396. It also gave a relative viability (NCI-H1395; first compound 0.005 µM) of 0.671, a relative viability (NCI-H1395; first compound 0.01581 µM) of 0.746 and a relative viability (NCI-H1395; first compound 0.05 µM) of 0.769. The relative viability (NCI-H1395; first compound 0.1581 µM) was 0.627, the relative viability (NCI-H1395; first compound 0.5 µM) was 0.678 and the relative viability (HCC-44; first compound 0.005 µM) was 0.617. It also gave a relative viability (HCC-44; first compound 0.01581 µM) of 0.471, a relative viability (HCC-44; first compound 0.05 µM) of 0.718 and a relative viability (HCC-44; first compound 0.1581 µM) of 0.488. The relative viability (HCC-44; first compound 0.5 µM) was 0.654, the relative viability (UMC-11; first compound 0.005 µM) was 0.793 and the relative viability (UMC-11; first compound 0.01581 µM) was 0.725. The relative viability (UMC-11; first compound 0.05 µM) was 0.712, the relative viability (UMC-11; first compound 0.5 µM) was 0.653 and the relative viability (Calu-6; first compound 0.005 µM) was 0.969. The relative viability (Calu-6; first compound 0.01581 µM) was 0.979, the relative viability (Calu-6; first compound 0.05 µM) was 0.842 and the relative viability (Calu-6; first compound 0.1581 µM) was 0.798. The relative viability (Calu-6; first compound 0.5 µM) was 0.823.
